Measured values published in patent US20120315629A1, “Cloning and Expression of arNOX Protein Transmembrane 9 Superfamily (TM9SF), Methods and Utility” (Nox Technologies ,Inc., priority 2009, published 2012).

Biological target: T1, Recombinant arNOX (TM9SF4) (Homo sapiens, UniProt Q92544)
T1 construct: cloning of the soluble fragment of TM9SF4 was successful; Met-Ala-Ser leader from NdeI/NheI of pET11b (my inference from the forward primer CATATGGCTAGCATG); made in house; host or cells: E. coli BL21 (DE3), pET11b
T1 sequence (Q92544 24-252): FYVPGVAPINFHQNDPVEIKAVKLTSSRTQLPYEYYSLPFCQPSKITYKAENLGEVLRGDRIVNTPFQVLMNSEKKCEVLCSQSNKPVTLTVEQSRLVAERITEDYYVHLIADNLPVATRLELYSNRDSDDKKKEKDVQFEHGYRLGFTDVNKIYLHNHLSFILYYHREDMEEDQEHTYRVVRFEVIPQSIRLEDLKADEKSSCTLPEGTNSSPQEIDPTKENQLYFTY
Experiment: arNOX activity: superoxide generation measured by reduction of ferricytochrome c
Type: biochemical
Conditions: test compounds added after 45 min, reaction continued for an additional 45 min; for inhibition of recombinant arNOX (TM9SF4) activity: extracts made in water unless otherwise indicated
Procedure: Reduction of ferric cytochrome c by superoxide was employed as a standard measure of superoxide formation (Mayo, L. A. and Curnutte, J., 1990, Meth. Enzymol. 186:567-575; Butler, J. et al., 1982, J. Biol. Chem. 257:10747-10750). This method, when coupled to superoxide dismutase inhibition, is generally accepted for the measurement of superoxide generation. The assay consists of 150 μl buffy coat material in PBSG buffer (8.06 g NaCl, 0.2 g KCl, 0.18 g Na2HPO4, 0.13 g CaCl2, 0.1 g MgCl2, 1.35 g glucose dissolved in 1000 ml deionized water, adjusted to pH 7.4, filtered and stored at 4° C.). Reduction of ferricytochrome c by superoxide was monitored as the increase in absorbance at 550 nm, with reference at 540 nm (Butler et al., 1982). As a further control for the specificity of the arNOX activity, 60 units of superoxide dismutase (SOD) were added near the end of the assay to ascertain that the rate returned to base line. Rates were determined using a SLM Aminco DW-2000 spectrophotometer in the dual wavelength mode of operation.
Rates were determined using an SLM Aminco DW-2000 spectrophotometer (Milton Roy, Rochester, N.Y.) in the dual wave length mode of operation with continuous measurements over 1 min every 1.5 min. After 45 min, test compounds were added and the reaction was continued for an additional 45 min. After 45 min, a millimolar extinction coefficient of 19.1 cm^−1 was used for reduced ferricytochrome c. The results of the test compounds are provided below (Table 4) for experiments carried out with TM9SF4, but from the results of FIG. 7, it is concluded that all the arNOX isoforms have similar responses to the various compounds given below. Extracts were made of the compounds in water unless otherwise indicated.

In the case of superoxide dismutase, the “inhibition of recombinant arNOX (TM9SF4) activity” value is reported as 78%.

For `O=C(O)c1cc(O)c(O)c(O)c1` [gallic acid], the “inhibition of recombinant arNOX (TM9SF4) activity” value was 80%.

With `CCC(C)C(=O)OC1C(=O)OC2CC3C(C)=CC(=O)C(O)C3(C)C3C(O)C(O)C4(C)OCC23C14` (stereo not drawn) [similikalactone D] the “sensitivity of recombinant arNOX (TM9SF4) activity to the compound (in words)” value was “resistant”.
